Assay results as given in the NIST ThermoML archive (doi:10.1021/je0302001).
Numbers after ± are expanded uncertainties.

Assay: mn = molality of the nth substance listed, in mol/kg
Conditions: for speed of sound / mass density / viscosity: 101.3 kPa, Liquid; for surface tension liquid-gas: Ring tensiometer; for viscosity: Capillary tube (Ostwald / Ubbelohde) method

O=[N+]([O-])[O-].O=[N+]([O-])[O-].[Zn+2] [nitric acid, zinc salt] + O
Conditions | mass density [kg/m3] | speed of sound [m/s] | surface tension liquid-gas [mN/m] | viscosity [mPa·s]
308.15 K, m1 = 4.075 | – | 1708.9 ± 4.5 | – | –
308.15 K, m1 = 4.817 | – | 1733.1 ± 4.6 | – | –
308.15 K, m1 = 5.224 | – | 1740.5 ± 4.6 | – | –
308.15 K, m1 = 5.797 | – | 1751.6 ± 4.6 | – | –
308.15 K, m1 = 6.34 | – | 1757.7 ± 4.6 | – | –
308.15 K, m1 = 6.89 | – | 1762.2 ± 4.7 | – | –
308.15 K, m1 = 7.349 | – | 1762.6 ± 4.7 | – | –
308.25 K, m1 = 2.344 | 1303.9 ± 1 | – | – | –
308.3 K, m1 = 1.258 | 1170.8 ± 0.9 | – | – | –
308.35 K, m1 = 1.113 | 1151.6 ± 0.9 | – | – | –
308.35 K, m1 = 6.89 | 1699.9 ± 1.6 | – | – | –
308.6 K, m1 = 1.551 | 1208.2 ± 0.9 | – | – | –
308.75 K, m1 = 0.0875 | 1006.4 ± 0.7 | – | – | –
308.75 K, m1 = 5.8 | 1624.4 ± 1.5 | – | – | –
308.85 K, m1 = 2.91 | 1366.3 ± 1.1 | – | – | –
309.05 K, m1 = 0.6111 | 1082.4 ± 0.8 | – | – | –
309.1 K, m1 = 6.34 | 1662.7 ± 1.5 | – | – | –
309.15 K, m1 = 0.2466 | 1029.9 ± 0.7 | – | – | –
309.35 K, m1 = 4.817 | 1546.9 ± 1.4 | – | – | –
309.4 K, m1 = 0.3388 | 1043.2 ± 0.8 | – | – | –
309.45 K, m1 = 0.6405 | 1086.3 ± 0.8 | – | – | –
309.45 K, m1 = 2.145 | 1280.1 ± 1 | – | – | –
309.55 K, m1 = 3.472 | 1423.6 ± 1.2 | – | – | –
309.55 K, m1 = 5.224 | 1579.9 ± 1.4 | – | – | –
310.1 K, m1 = 2.29 | 1296.5 ± 1 | – | – | –
310.35 K, m1 = 2.344 | 1302.6 ± 1 | – | – | –
310.45 K, m1 = 1.258 | 1169.6 ± 0.9 | – | – | –
310.45 K, m1 = 2.292 | 1296.6 ± 1 | – | – | –
310.45 K, m1 = 5.8 | 1622.9 ± 1.5 | – | – | –
310.7 K, m1 = 1.113 | 1150.3 ± 0.9 | – | – | –
310.7 K, m1 = 2.91 | 1364.9 ± 1.1 | – | – | –
310.75 K, m1 = 0.1329 | 1012.3 ± 0.7 | – | – | –
310.75 K, m1 = 6.34 | 1661.1 ± 1.5 | – | – | –
310.8 K, m1 = 7.764 | 1749.7 ± 1.7 | – | – | –
310.85 K, m1 = 1.551 | 1206.9 ± 0.9 | – | – | –
310.95 K, m1 = 7.349 | 1725.6 ± 1.6 | – | – | –
311.15 K, m1 = 4.817 | 1545.4 ± 1.4 | – | – | –
311.25 K, m1 = 5.224 | 1578.2 ± 1.4 | – | – | –
311.35 K, m1 = 0.6111 | 1081.4 ± 0.8 | – | – | –
311.35 K, m1 = 3.472 | 1422.1 ± 1.2 | – | – | –
311.35 K, m1 = 4.075 | 1480.4 ± 1.3 | – | – | –
311.4 K, m1 = 2.145 | 1278.8 ± 1 | – | – | –
311.5 K, m1 = 0.0875 | 1005.4 ± 0.7 | – | – | –
311.7 K, m1 = 6.89 | 1696.5 ± 1.6 | – | – | –
311.85 K, m1 = 0.2466 | 1028.8 ± 0.8 | – | – | –
311.85 K, m1 = 0.3388 | 1042.2 ± 0.8 | – | – | –
311.9 K, m1 = 0.6405 | 1085.1 ± 0.8 | – | – | –
311.9 K, m1 = 1.906 | 1250.1 ± 1 | – | – | –
312 K, m1 = 2.29 | 1295.1 ± 1.1 | – | – | –
312.25 K, m1 = 5.8 | 1621 ± 1.5 | – | – | –
312.35 K, m1 = 2.292 | 1295.2 ± 1.1 | – | – | –
312.55 K, m1 = 6.34 | 1659.2 ± 1.6 | – | – | –
312.7 K, m1 = 1.258 | 1168.4 ± 0.9 | – | – | –
312.85 K, m1 = 1.113 | 1149.1 ± 0.9 | – | – | –
312.95 K, m1 = 1.551 | 1205.6 ± 0.9 | – | – | –
313.05 K, m1 = 5.224 | 1576.6 ± 1.4 | – | – | –
313.15 K, m1 = 0.0875 | – | 1533.4 ± 4.1 | – | –
313.15 K, m1 = 0.1329 | – | 1531.7 ± 4.1 | – | 0.691 ± 0.008
313.15 K, m1 = 0.2263 | – | – | 70.59 ± 0.9 | –
313.15 K, m1 = 0.2466 | – | 1535.7 ± 4.1 | – | 0.716 ± 0.008
313.15 K, m1 = 0.334 | – | – | 70.83 ± 0.9 | –
313.15 K, m1 = 0.3388 | – | – | – | 0.739 ± 0.009
313.15 K, m1 = 0.6111 | – | – | – | 0.805 ± 0.009
313.15 K, m1 = 0.6198 | – | – | 71.5 ± 0.91 | –
313.15 K, m1 = 0.6405 | – | – | – | 0.813 ± 0.009
313.15 K, m1 = 0.8228 | – | – | 72.2 ± 0.92 | –
313.15 K, m1 = 1.113 | – | – | – | 0.952 ± 0.011
313.15 K, m1 = 1.258 | – | – | – | 1.01 ± 0.012
313.15 K, m1 = 1.259 | – | – | 73.37 ± 0.94 | –
313.15 K, m1 = 1.549 | – | – | 74.1 ± 0.96 | –
313.15 K, m1 = 1.551 | – | – | – | 1.106 ± 0.013
313.15 K, m1 = 1.818 | – | – | 74.61 ± 0.97 | –
313.15 K, m1 = 1.906 | – | – | – | 1.277 ± 0.015
313.15 K, m1 = 2.145 | – | – | – | 1.408 ± 0.017
313.15 K, m1 = 2.222 | – | – | 76.05 ± 0.99 | –
313.15 K, m1 = 2.29 | – | – | – | 1.475 ± 0.017
313.15 K, m1 = 2.344 | – | – | – | 1.495 ± 0.018
313.15 K, m1 = 2.526 | – | – | 77.02 ± 1 | –
313.15 K, m1 = 2.721 | – | – | 77.55 ± 1 | –
313.15 K, m1 = 2.91 | – | – | – | 1.843 ± 0.022
313.15 K, m1 = 3.426 | – | – | 79.09 ± 1.1 | –
313.15 K, m1 = 3.472 | – | – | – | 2.305 ± 0.028
313.15 K, m1 = 4.011 | – | – | 80.79 ± 1.1 | –
313.15 K, m1 = 4.075 | – | – | – | 2.868 ± 0.035
313.15 K, m1 = 4.231 | – | – | 81.05 ± 1.1 | –
313.15 K, m1 = 4.817 | – | – | – | 3.774 ± 0.046
313.15 K, m1 = 5.133 | – | – | 83.04 ± 1.1 | –
313.15 K, m1 = 5.224 | – | – | – | 4.322 ± 0.053
313.15 K, m1 = 5.797 | – | – | – | 5.432 ± 0.067
313.15 K, m1 = 6.245 | – | – | 84.64 ± 1.2 | –
313.15 K, m1 = 6.34 | – | – | – | 6.509 ± 0.081
313.15 K, m1 = 6.89 | – | – | – | 7.997 ± 0.1
313.15 K, m1 = 7.349 | – | – | – | 9.383 ± 0.12
